Measured values from ChEMBL document CHEMBL1136475, “Synthesis and analgesic activity of hydrochlorides and quaternary ammoniums of epibatidine incorporated with amino acid ester” (Bioorg Med Chem Lett, 2003).

Experiments:
[1] = Toxicity in rats was determined by sc administration at a dose of 20 mg/kg; format: organism-based; parameters: dose 20 mg/kg, route subcutaneous; conditions: rat, in vivo, read-out: Rate of death
[2] = system: Mus musculus; assay: In vivo analgesic activity using acetic acid writhing test in mice at a dose of 20 mg/kg by sc administration; format: functional; conditions: route subcutaneous
[3] = molecular target: Neuronal acetylcholine receptor; assay: Binding affinity towards nicotinic acetylcholine receptor (nAChR); format: protein-complex assay
[4] = Toxicity in rats was determined by sc administration at a dose of 10 mg/kg; format: organism-based; parameters: dose 10 mg/kg, route subcutaneous; conditions: rat, in vivo, read-out: Rate of death
[5] = system: Mus musculus; assay: In vivo analgesic activity using acetic acid writhing test in mice at a dose of 10 mg/kg by sc administration; format: functional; conditions: route subcutaneous
[6] = Toxicity in rats was determined by sc administration at a dose of 1 mg/kg; format: organism-based; parameters: dose 1 mg/kg, route subcutaneous; conditions: rat, in vivo, read-out: Rate of death
[7] = Toxicity in rats was determined by sc administration at a dose of 5 mg/kg; format: organism-based; parameters: dose 5 mg/kg, route subcutaneous; conditions: rat, in vivo, read-out: Rate of death
[8] = system: Mus musculus; assay: In vivo analgesic activity using acetic acid writhing test in mice at a dose of 1 mg/kg by sc administration; format: functional; conditions: route subcutaneous
[9] = system: Mus musculus; assay: In vivo analgesic activity using acetic acid writhing test in mice at a dose of 5 mg/kg by sc administration; format: functional; conditions: route subcutaneous

| Compound | mortality [1] [%] | Inhibitory rate [2] [%] | also measured |
| --- | --- | --- | --- |
| CCOC(=O)C1CSCN1C(=O)C1C(c2ccc(Cl)nc2)C2CCC1N2Cc1ccccc1.Cl (configuration not stated) | 0 | 12.3 |  |
| CCOC(=O)CCC(NC(=O)C1C(c2ccc(Cl)nc2)C2CCC1N2Cc1ccccc1)C(=O)OCC.Cl (configuration not stated) | 0 | 27.1 |  |
| C[N+]1(Cc2ccccc2)CCN(C(=O)CCCCCCC(=O)N2CC[N+](C)(Cc3ccccc3)CC2)CC1.[Br-].[Br-] |  | 80.3 |  |
| CCOC(=O)CNC(=O)C1C(c2ccc(Cl)nc2)C2CCC1N2Cc1ccccc1.Cl (configuration not stated) | 0 | 26.1 |  |
| c1cncc(CN2C3CCC2CC3)c1 |  |  | Ki [3]: 98 nM |
| CCOC(=O)CCC(NC(=O)C1C(c2ccc(Cl)nc2)C2CCC1[N+]2(C)Cc1ccccc1)C(=O)OCC.[I-] (configuration not stated) |  | 1 | mortality [4]: 80%; Inhibitory rate [5]: 99.3% |
| CCOC(=O)C1CSCN1C(=O)C1C(c2ccc(Cl)nc2)C2CCC1[N+]2(C)Cc1ccccc1.[I-] (configuration not stated) |  |  | mortality [6]: 0%; mortality [7]: 0%; Inhibitory rate [8]: 9.1%; Inhibitory rate [9]: 49.8% |
| CCOC(=O)CNC(=O)C1C(c2ccc(Cl)nc2)C2CCC1[N+]2(C)Cc1ccccc1.[I-] (configuration not stated) | 0 | 66.6 |  |
